Results as given in US20210214758A1, “METHODS AND TOOLS FOR DETERMINING CLONAL RELATEDNESS AND PREDICTING CLONAL TRAITS” (priority 2018, published 2021).

Test system: Klebsiella isolates
Assay: Antibiotic susceptibility of Klebsiella clinical isolates per 7-SNP clonotype (Lookup Table 1; disk diffusion)
Format: cell-based, Klebsiella spp.
Protocol: In further embodiments, the Lookup Table is Lookup Table 1. The information contained in Lookup Table 1 below was obtained from urine specimens from patients with Klebsiella infections from several clinics within different regions of the United States. CT=clonotypes determined using a 7-SNP combination: phoE54; rpoB130; infB279; mdh315; phoE336; phoE354; and mdh429.
Next, antibiotic resistance was determined for all 387 Klebsiella isolates in the discovery set. Antibiotic testing was carried out according to the standard disk diffusion method as described in the Clinical and Laboratory Standards Institute (M100 Performance Standards for Antimicrobial Susceptibility Testing, 27th Edition, 2017). […] Since almost all Klebsiella isolates are known to be resistant to AMP and sensitive to IMI, TET is not used for treatment of urinary tract infections, and ESBL production is partially reflected in resistance to CTR, these antibiotics were not included for further analysis.
To aid in clinical decision-making and to translate clonotype information to treatment selection, Lookup Table 1 was generated. […] The information contained in Lookup Table 1 was obtained from urine specimens from patients with Klebsiella infections from several clinics within different regions of the United States. Indications of allowance or non-recommendation were determined based on a 20% resistance threshold to the indicated antibiotic; i.e., the antibiotic is recommended when more than 80% of the tested isolates within the indicated clonotype were susceptible to the indicated antibiotic, and was cautioned against when less than 80% of the isolates were susceptible to the antibiotic.

SMILES: O=C1CN(/N=C/c2ccc([N+](=O)[O-])o2)C(=O)N1 [NIT, nitrofurantoin]
- susceptibility, % (CT 000): 91%
- susceptibility, % (CT 001): 0%
- susceptibility, % (CT 010): 33%
- susceptibility, % (CT 011): 82%
- susceptibility, % (CT 031): 100%
- susceptibility, % (CT 040): 50%
- susceptibility, % (CT 050): 33%
- susceptibility, % (CT 051): 56%
- susceptibility, % (CT 071): 60%
- susceptibility, % (CT 100): 86%
- susceptibility, % (CT 110): 0%
- susceptibility, % (CT 111): 30%
- susceptibility, % (CT 130): 70%
- susceptibility, % (CT 131): 56%
- susceptibility, % (CT 141): 0%
- susceptibility, % (CT 150): 42%
- susceptibility, % (CT 151): 41%
- susceptibility, % (CT 160): 0%
- susceptibility, % (CT 170): 39%
- susceptibility, % (CT 171): 28%
- susceptibility, % (CT 200): 97%
- susceptibility, % (CT 201): 66%
- susceptibility, % (CT 210): 57%
- susceptibility, % (CT 211): 81%
- susceptibility, % (CT 230): 0%
- susceptibility, % (CT 231): 50%
- susceptibility, % (CT 240): 100%
- susceptibility, % (CT 241): 0%
- susceptibility, % (CT 250): 50%
- susceptibility, % (CT 251): 57%
- susceptibility, % (CT 271): 50%
- susceptibility, % (CT 300): 0%
- susceptibility, % (CT 301): 64%
- susceptibility, % (CT 310): 47%
- susceptibility, % (CT 311): 60%
- susceptibility, % (CT 330): 15%
- susceptibility, % (CT 331): 53%
- susceptibility, % (CT 350): 54%
- susceptibility, % (CT 351): 59%
- susceptibility, % (CT 370): 25%
- susceptibility, % (CT 371): 25%
- susceptibility, % (CT 411): 50%
- susceptibility, % (CT 450): 50%
- susceptibility, % (CT 451): 67%
- susceptibility, % (CT 510): 0%
- susceptibility, % (CT 511): 100%
- susceptibility, % (CT 530): 31%
- susceptibility, % (CT 531): 33%
- susceptibility, % (CT 550): 19%
- susceptibility, % (CT 551): 18%
- susceptibility, % (CT 570): 25%
- susceptibility, % (CT 571): 50%
- susceptibility, % (CT 611): 50%
- susceptibility, % (CT 630): 0%
- susceptibility, % (CT 650): 63%
- susceptibility, % (CT 651): 35%
- susceptibility, % (CT 670): 0%
- susceptibility, % (CT 710): 67%
- susceptibility, % (CT 730): 36%
- susceptibility, % (CT 731): 67%
- susceptibility, % (CT 750): 50%
- susceptibility, % (CT 751): 33%
- susceptibility, % (CT 771): 57%
- susceptibility, % (CT Any Klebsiella spp.): 59%

SMILES: CN(C)[C@@H]1C(O)=C(C(N)=O)C(=O)[C@@]2(O)C(O)=C3C(=O)c4c(O)cccc4[C@@](C)(O)[C@H]3C[C@@H]12 [TET, tetracycline]
- susceptibility, % (CT 000): 93%
- susceptibility, % (CT 001): 0%
- susceptibility, % (CT 010): 67%
- susceptibility, % (CT 011): 73%
- susceptibility, % (CT 031): 67%
- susceptibility, % (CT 040): 50%
- susceptibility, % (CT 050): 76%
- susceptibility, % (CT 051): 85%
- susceptibility, % (CT 071): 80%
- susceptibility, % (CT 100): 100%
- susceptibility, % (CT 110): 100%
- susceptibility, % (CT 111): 90%
- susceptibility, % (CT 130): 88%
- susceptibility, % (CT 131): 52%
- susceptibility, % (CT 141): 100%
- susceptibility, % (CT 150): 80%
- susceptibility, % (CT 151): 75%
- susceptibility, % (CT 160): 100%
- susceptibility, % (CT 170): 91%
- susceptibility, % (CT 171): 81%
- susceptibility, % (CT 200): 83%
- susceptibility, % (CT 201): 83%
- susceptibility, % (CT 210): 76%
- susceptibility, % (CT 211): 88%
- susceptibility, % (CT 230): 0%
- susceptibility, % (CT 231): 100%
- susceptibility, % (CT 240): 100%
- susceptibility, % (CT 241): 100%
- susceptibility, % (CT 250): 85%
- susceptibility, % (CT 251): 83%
- susceptibility, % (CT 271): 79%
- susceptibility, % (CT 300): 0%
- susceptibility, % (CT 301): 88%
- susceptibility, % (CT 310): 93%
- susceptibility, % (CT 311): 80%
- susceptibility, % (CT 330): 80%
- susceptibility, % (CT 331): 75%
- susceptibility, % (CT 350): 83%
- susceptibility, % (CT 351): 86%
- susceptibility, % (CT 370): 75%
- susceptibility, % (CT 371): 100%
- susceptibility, % (CT 411): 100%
- susceptibility, % (CT 450): 83%
- susceptibility, % (CT 451): 100%
- susceptibility, % (CT 510): 100%
- susceptibility, % (CT 511): 100%
- susceptibility, % (CT 530): 75%
- susceptibility, % (CT 531): 100%
- susceptibility, % (CT 550): 75%
- susceptibility, % (CT 551): 93%
- susceptibility, % (CT 570): 75%
- susceptibility, % (CT 571): 100%
- susceptibility, % (CT 611): 67%
- susceptibility, % (CT 630): 100%
- susceptibility, % (CT 650): 83%
- susceptibility, % (CT 651): 92%
- susceptibility, % (CT 670): 100%
- susceptibility, % (CT 710): 67%
- susceptibility, % (CT 730): 79%
- susceptibility, % (CT 731): 85%
- susceptibility, % (CT 750): 95%
- susceptibility, % (CT 751): 100%
- susceptibility, % (CT 771): 100%
- susceptibility, % (CT Any Klebsiella spp.): 82%
